In publication PMC11823609, “Advancements in the fight against globally distributed OXA-48 carbapenemase: evaluating the new generation of carbapenemase inhibitors” (Antimicrobial Agents and Chemotherapy, 2025):
Converted amounts (≈) assume the structure as drawn. Read-outs that look alike come from different tables or passages of the source.

Columns and labels:
Experiment in all cases: microbe, parasite or virus in culture
[1] = tested on: E. coli HB4 ΔompC/F (CTX-M-14); assay type: cell-based, Escherichia coli
Source text: (§1) The E. coli HB4 strain was used to gain a more complete perspective, by evaluating the involvement in resistance of a low permeability background with the carbapenemase OXA-48, as well as coproduction of an ESBL and the carbapenemase; thus, the ESBL CTX-M-14 and OXA-48 were cloned together and separately into E. coli HB4. The characteristics of these strains and transformants are summarized in Table S1, and the cloning procedures are outlined in the supplemental methods.
(§2) The MICs of each of the individual compounds (antibiotics or inhibitors) were also determined. The MICs were determined for the E. coli isogenic expressing OXA-48 (and both OXA-48 and CTX-M-14) to assess their activity against the carbapenemase; MICs were also determined for the 18 Enterobacterales clinical isolates in order to evaluate the new inhibitors against also their resistance concomitant mechanisms. The MICs were determined in triplicate experiments, and the EUCAST 13.0 clinical breakpoints were followed (http://www.eucast.org/clinical_breakpoints).
(§3) For comparative evaluation of the activity of each inhibitor alone against the carbapenemase OXA-48, all inhibitors (at 4 mg/L) were tested in the presence of a carbapenem (ertapenem, adequate substrate) and a cephalosporin (ceftazidime, poor substrate) as reporter substrates. This prevented any possible masking effect produced by the different partner antibiotics. These assays were also performed with isogenic transformants and clinical isolates.

[2] = tested on: E. coli HB4 ΔompC/F (CTX-M-14 + OXA-48); assay type: cell-based, Escherichia coli
Source text: as §1, §2, §3

[3] = tested on: E. coli HB4 ΔompC/F (OXA-48); assay type: cell-based, Escherichia coli
Source text: as §1, §2, §3

E. coli HB4 ΔompC/F = assay type: cell-based, Escherichia coli
Source text: as §1, §2, §3

[4] = tested on: K. pneumoniae strain 71 (MLST 15, No ESBL); assay type: cell-based; conditions: K. pneumoniae 71
Experimental: (§4) The efficacy of these new BLIs was also evaluated against 18 genetically diverse WGS-characterized collection of OXA-48-positive Enterobacterales recovered as part of the Carbapenem-resistant Enterobacterales Genome Database Project (https://genomes.cnag.cat/incredble) listed in Table S2 ([13]). Combinations of clinical isolates (five pairs of Klebsiella pneumoniae, two pairs of Enterobacter cloacae, and two pairs of E. coli) were chosen for analysis: (i) nine strains carrying ESBLs; and (ii) nine strains (genetically closer available strains) without ESBLs.
as §2, §3

[5] = tested on: E. coli strain 177 (MLST 131, ESBL); assay type: cell-based
Experimental: as §4, §2, §3

[6] = tested on: E. cloacae strain 231 (MLST 171, No ESBL); assay type: cell-based; conditions: E. cloacae 231
Experimental: as §4, §2, §3

[7] = tested on: E. coli strain 264 (MLST 131, No ESBL); assay type: cell-based; conditions: E. coli 264
Experimental: as §4, §2, §3

[8] = tested on: K. pneumoniae strain 413 (MLST 147, ESBL); assay type: cell-based
Experimental: as §4, §2, §3

[9] = tested on: K. pneumoniae strain 238 (MLST 15, ESBL); assay type: cell-based
Experimental: as §4, §2, §3

[10] = tested on: E. cloacae strain 272 (MLST 78, ESBL); assay type: cell-based
Experimental: as §4, §2, §3

[11] = tested on: K. pneumoniae strain 125 (MLST 307, ESBL); assay type: cell-based
Experimental: as §4, §2, §3

[12] = tested on: E. coli strain 224 (MLST 127, No ESBL); assay type: cell-based; conditions: E. coli 224
Experimental: as §4, §2, §3

[13] = tested on: K. pneumoniae strain 237 (MLST 147, No ESBL); assay type: cell-based; conditions: K. pneumoniae 237
Experimental: as §4, §2, §3

[14] = tested on: K. pneumoniae strain 194 (MLST 392, No ESBL); assay type: cell-based; conditions: K. pneumoniae 194
Experimental: as §4, §2, §3

[15] = tested on: K. pneumoniae strain 497 (MLST 11, No ESBL); assay type: cell-based; conditions: K. pneumoniae 497
Experimental: as §4, §2, §3

[16] = tested on: K. pneumoniae strain 170 (MLST 307, No ESBL); assay type: cell-based; conditions: K. pneumoniae 170
Experimental: as §4, §2, §3

[17] = tested on: E. cloacae strain 281 (MLST 78, No ESBL); assay type: cell-based; conditions: E. cloacae 281
Experimental: as §4, §2, §3

[18] = tested on: K. pneumoniae strain 19 (MLST 11, ESBL); assay type: cell-based
Experimental: as §4, §2, §3

[19] = tested on: E. coli strain 103 (MLST 10, ESBL); assay type: cell-based
Experimental: as §4, §2, §3

[20] = tested on: E. cloacae strain 235 (MLST 171, ESBL); assay type: cell-based
Experimental: as §4, §2, §3

[21] = tested on: K. pneumoniae strain 23 (MLST 392, ESBL); assay type: cell-based
Experimental: as §4, §2, §3

[22] = ceftazidime alone or with BLI at 4 mg/L
[23] = Klebsiella pneumoniae, BL alone or BL/BLI: AVI, REL, TAN, DUR 4 mg/L, VAB, XER 8 mg/L, ZID, NAC 1:1, read-out: MIC
[24] = Enterobacter cloacae, BL alone or BL/BLI: AVI, REL, TAN, DUR 4 mg/L, VAB, XER 8 mg/L, ZID, NAC 1:1, read-out: MIC
[25] = Escherichia coli, BL alone or BL/BLI: AVI, REL, TAN, DUR 4 mg/L, VAB, XER 8 mg/L, ZID, NAC 1:1, read-out: MIC
[26] = Klebsiella pneumoniae, β-lactamase inhibitor alone, read-out: MIC
[27] = Enterobacter cloacae, β-lactamase inhibitor alone, read-out: MIC
[28] = Escherichia coli, β-lactamase inhibitor alone, read-out: MIC

**Q.** With `CC(C)(O/N=C(\C(=O)N[C@@H]1C(=O)N2C(C(=O)[O-])=C(C[n+]3ccccc3)CS[C@H]12)c1csc(N)n1)C(=O)O` [CAZ, ceftazidime] as the compound, how does the MIC ([1]; E. coli HB4 ΔompC/F (CTX-M-14), ceftazidime alone or with BLI at 4 mg/L) read?
**A.** 16 µg/mL (≈ 29.3 µM)

**Q.** What about the MIC ([1]; Escherichia coli) of the same compound?
**A.** 16 µg/mL (≈ 29.3 µM)

**Q.** And the MIC ([2]; E. coli HB4 ΔompC/F (CTX-M-14 + OXA-48), ceftazidime alone or with BLI at 4 mg/L)?
**A.** 16 µg/mL

**Q.** And the MIC ([2]; Escherichia coli)?
**A.** 16 µg/mL (≈ 29.3 µM)

**Q.** And the MIC ([3]; E. coli HB4 ΔompC/F (OXA-48), ceftazidime alone or with BLI at 4 mg/L)?
**A.** 1 µg/mL (≈ 1.83 µM)

**Q.** And the MIC ([3]; Escherichia coli)?
**A.** 1 µg/mL (≈ 1.83 µM)

**Q.** And the MIC (E. coli HB4 ΔompC/F; E. coli HB4 ΔompC/F, ceftazidime alone or with BLI at 4 mg/L)?
**A.** 1 µg/mL (≈ 1.83 µM)

**Q.** And the MIC (E. coli HB4 ΔompC/F; Escherichia coli)?
**A.** 1 µg/mL (≈ 1.83 µM)

**Q.** What about the MIC [4, 22] of the same compound?
**A.** 0.5 µg/mL

**Q.** And the MIC [4, 23]?
**A.** 0.5 µg/mL

**Q.** And the MIC ([5]; E. coli 177, ceftazidime alone or with BLI at 4 mg/L)?
**A.** 128 µg/mL

**Q.** What about the MIC ([5]; Escherichia coli) of the same compound?
**A.** 128 µg/mL

**Q.** And the MIC [6, 22]?
**A.** 1 µg/mL

**Q.** What about the MIC [6, 24] of the same compound?
**A.** 1 µg/mL

**Q.** What about the MIC [7, 22] of the same compound?
**A.** 0.25 µg/mL

**Q.** What about the MIC [7, 25] of the same compound?
**A.** 0.25 µg/mL

**Q.** And the MIC ([8]; K. pneumoniae 413, ceftazidime alone or with BLI at 4 mg/L)?
**A.** 32 µg/mL

**Q.** What about the MIC ([8]; Klebsiella pneumoniae) of the same compound?
**A.** 32 µg/mL

**Q.** And the MIC ([9]; K. pneumoniae 238, ceftazidime alone or with BLI at 4 mg/L)?
**A.** 32 µg/mL

**Q.** And the MIC ([9]; Klebsiella pneumoniae)?
**A.** 32 µg/mL

**Q.** What about the MIC ([10]; E. cloacae 272, ceftazidime alone or with BLI at 4 mg/L) of the same compound?
**A.** ≥256 µg/mL

**Q.** What about the MIC ([10]; Enterobacter cloacae) of the same compound?
**A.** ≥ 256 µg/mL

**Q.** And the MIC ([11]; K. pneumoniae 125, ceftazidime alone or with BLI at 4 mg/L)?
**A.** 64 µg/mL

**Q.** And the MIC ([11]; Klebsiella pneumoniae)?
**A.** 64 µg/mL

**Q.** And the MIC [12, 22]?
**A.** 0.25 µg/mL

**Q.** What about the MIC [12, 25] of the same compound?
**A.** 0.25 µg/mL

**Q.** And the MIC [13, 22]?
**A.** 0.25 µg/mL

**Q.** What about the MIC [13, 23] of the same compound?
**A.** 0.25 µg/mL

**Q.** And the MIC [14, 22]?
**A.** 0.5 µg/mL

**Q.** And the MIC [14, 23]?
**A.** 0.5 µg/mL

**Q.** What about the MIC [15, 22] of the same compound?
**A.** 0.5 µg/mL

**Q.** And the MIC [15, 23]?
**A.** 0.5 µg/mL

**Q.** What about the MIC [16, 22] of the same compound?
**A.** 0.5 µg/mL

**Q.** And the MIC [16, 23]?
**A.** 0.5 µg/mL

**Q.** What about the MIC [17, 22] of the same compound?
**A.** 0.5 µg/mL

**Q.** What about the MIC [17, 24] of the same compound?
**A.** 0.5 µg/mL

**Q.** And the MIC ([18]; K. pneumoniae 19, ceftazidime alone or with BLI at 4 mg/L)?
**A.** 32 µg/mL

**Q.** And the MIC ([18]; Klebsiella pneumoniae)?
**A.** 32 µg/mL

**Q.** And the MIC ([19]; E. coli 103, ceftazidime alone or with BLI at 4 mg/L)?
**A.** 4 µg/mL

**Q.** And the MIC ([19]; Escherichia coli)?
**A.** 4 µg/mL

**Q.** And the MIC ([20]; E. cloacae 235, ceftazidime alone or with BLI at 4 mg/L)?
**A.** 128 µg/mL

**Q.** What about the MIC ([20]; Enterobacter cloacae) of the same compound?
**A.** 128 µg/mL

**Q.** What about the MIC ([21]; K. pneumoniae 23, ceftazidime alone or with BLI at 4 mg/L) of the same compound?
**A.** 128 µg/mL

**Q.** What about the MIC ([21]; Klebsiella pneumoniae) of the same compound?
**A.** 128 µg/mL

**Q.** What does the source list for `CC1=C[C@@H]2CN(C(=O)N2OS(=O)(=O)O)[C@@H]1C(N)=O` [Durlobactam, durlobactam]?
**A.** MIC ([1]; Escherichia coli): 1 µg/mL (≈ 3.61 µM); MIC ([2]; Escherichia coli): 1 µg/mL (≈ 3.61 µM); MIC ([3]; Escherichia coli): 1 µg/mL (≈ 3.61 µM); MIC (E. coli HB4 ΔompC/F; Escherichia coli): 0.5 µg/mL (≈ 1.8 µM); MIC [4, 26]: 2 µg/mL; MIC ([5]; Escherichia coli): 2 µg/mL; MIC [6, 27]: 1 µg/mL; MIC [7, 28]: 0.25 µg/mL; MIC ([8]; Klebsiella pneumoniae): 4 µg/mL; MIC ([9]; Klebsiella pneumoniae): 0.5 µg/mL; MIC ([10]; Enterobacter cloacae): 1 µg/mL; MIC ([11]; Klebsiella pneumoniae): 2 µg/mL; MIC [12, 28]: 0.25 µg/mL; MIC [13, 26]: 0.5 µg/mL; MIC [14, 26]: 1 µg/mL; MIC [15, 26]: 2 µg/mL; MIC [16, 26]: 0.5 µg/mL; MIC [17, 27]: 4 µg/mL; MIC ([18]; Klebsiella pneumoniae): 2 µg/mL; MIC ([19]; Escherichia coli): 0.25 µg/mL; MIC ([20]; Enterobacter cloacae): 4 µg/mL; MIC ([21]; Klebsiella pneumoniae): 0.5 µg/mL
